The target of series [1] is T1, hNav1.7 (Homo sapiens, UniProt Q15858). In words: cell-based. The note with it: IonWorks Quattro; read-out: IC50 Nav1.7. (In general: The patch-clamp technique gives a direct electrical read-out from membranes.)
For series [2], the target named is T2, hNav1.5 (Homo sapiens, UniProt Q14524). The series can be described thus: cell-based. The note with it: IonWorks Quattro; read-out: IC50 Nav1.5.
The target of series [3] is T3, hNav1.4 (Homo sapiens, UniProt P35499). In words: cell-based. Conditions: IonWorks Quattro; read-out: IC50 Nav1.4.
T3 sequence (P35499 whole entry): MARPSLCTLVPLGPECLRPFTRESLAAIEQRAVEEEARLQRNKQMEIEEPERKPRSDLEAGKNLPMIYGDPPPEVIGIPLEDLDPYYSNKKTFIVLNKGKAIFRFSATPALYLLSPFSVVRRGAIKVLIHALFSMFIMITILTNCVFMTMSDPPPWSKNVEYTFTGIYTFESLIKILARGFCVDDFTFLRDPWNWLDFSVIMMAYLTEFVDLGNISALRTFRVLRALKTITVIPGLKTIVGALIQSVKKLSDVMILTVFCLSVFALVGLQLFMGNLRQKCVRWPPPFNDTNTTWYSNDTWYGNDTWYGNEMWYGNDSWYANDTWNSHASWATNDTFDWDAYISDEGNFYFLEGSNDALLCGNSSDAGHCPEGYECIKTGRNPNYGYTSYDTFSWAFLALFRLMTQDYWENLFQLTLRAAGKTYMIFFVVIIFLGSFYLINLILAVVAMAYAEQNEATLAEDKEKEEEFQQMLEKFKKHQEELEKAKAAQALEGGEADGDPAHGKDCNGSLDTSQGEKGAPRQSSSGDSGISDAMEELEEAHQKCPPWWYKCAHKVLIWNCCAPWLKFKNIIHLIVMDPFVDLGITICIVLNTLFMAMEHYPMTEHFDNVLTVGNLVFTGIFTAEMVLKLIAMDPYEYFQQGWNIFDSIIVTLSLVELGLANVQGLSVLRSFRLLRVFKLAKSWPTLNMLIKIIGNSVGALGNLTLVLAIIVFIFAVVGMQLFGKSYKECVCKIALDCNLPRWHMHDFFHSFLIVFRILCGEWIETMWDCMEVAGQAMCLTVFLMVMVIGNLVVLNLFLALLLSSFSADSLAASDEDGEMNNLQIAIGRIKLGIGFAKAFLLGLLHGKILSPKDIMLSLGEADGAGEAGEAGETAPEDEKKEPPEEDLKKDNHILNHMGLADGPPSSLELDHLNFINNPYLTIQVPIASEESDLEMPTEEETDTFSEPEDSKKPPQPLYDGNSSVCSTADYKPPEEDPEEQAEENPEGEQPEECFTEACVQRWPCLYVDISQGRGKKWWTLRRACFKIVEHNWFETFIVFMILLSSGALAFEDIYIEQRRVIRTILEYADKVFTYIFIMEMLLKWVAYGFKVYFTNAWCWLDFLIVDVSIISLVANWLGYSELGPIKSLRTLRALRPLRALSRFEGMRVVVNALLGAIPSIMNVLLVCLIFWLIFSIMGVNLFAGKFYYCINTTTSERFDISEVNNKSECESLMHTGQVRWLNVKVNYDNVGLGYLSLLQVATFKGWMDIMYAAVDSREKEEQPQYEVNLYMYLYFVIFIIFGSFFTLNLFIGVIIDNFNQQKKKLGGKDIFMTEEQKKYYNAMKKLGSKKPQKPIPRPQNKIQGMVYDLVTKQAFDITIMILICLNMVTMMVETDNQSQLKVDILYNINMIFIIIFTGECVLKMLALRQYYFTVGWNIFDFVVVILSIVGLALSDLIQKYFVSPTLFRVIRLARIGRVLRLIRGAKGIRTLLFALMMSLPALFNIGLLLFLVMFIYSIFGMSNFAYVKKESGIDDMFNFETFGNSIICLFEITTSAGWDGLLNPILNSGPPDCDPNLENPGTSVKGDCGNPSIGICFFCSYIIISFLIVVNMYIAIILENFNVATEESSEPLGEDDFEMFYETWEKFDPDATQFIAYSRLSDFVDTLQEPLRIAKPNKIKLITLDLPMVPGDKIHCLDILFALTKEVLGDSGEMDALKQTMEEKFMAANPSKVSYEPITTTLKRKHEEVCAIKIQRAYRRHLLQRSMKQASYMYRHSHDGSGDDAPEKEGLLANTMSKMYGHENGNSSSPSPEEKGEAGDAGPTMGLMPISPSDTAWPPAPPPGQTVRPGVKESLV
Another series addresses hNav1.3 (Homo sapiens, UniProt Q9NY46). The series can be described thus: cell-based. The note with it: IonWorks Quattro; read-out: IC50 Nav1.3.
In series [4] the target is T1, hNav1.7. In words: cell-based. Format: cell-based. The note with it: PatchXpress; * = at high concentrations compound would wash off slowly or not at all; read-out: PX hNav1.7 Tonic IC50.
For series [5], the target named is T3, hNav1.4. The series can be described thus: cell-based. Conditions: PatchXpress; * = at high concentrations compound would wash off slowly or not at all; read-out: PX hNav1.4 Tonic IC50.
For series [6], the target named is T2, hNav1.5. In words: cell-based. Conditions: PatchXpress; * = at high concentrations compound would wash off slowly or not at all; read-out: PX hNav1.5 Tonic IC50.
Series [7] deals with T1, hNav1.7. The series can be described thus: cell-based. Format: cell-based.
Series [8] deals with TTX-sensitive Nav channels in mouse DRG neuron. Format: cell-based.
For series [9] the following is noted: mouse plasma, 37° C., incubation time 0 hr (normalisation point).
For series [10] the following is noted: rat plasma, 37° C., incubation time 0 hr (normalisation point).
Series [11] in a line: in vitro. The note with it: mouse, plasma.
Series [12] in a line: in vitro. Conditions: rat, plasma.

The structures appear in SMILES notation. “And” between values parts separate entries of the source, which are not always exact repeats. Equal entries are not always repeated. Where two headings read alike, the source gives them in different places.

This note sets out measurements from patent publication US9636418B2 (priority 2013, dated 2017).

T2 sequence (Q14524 whole entry): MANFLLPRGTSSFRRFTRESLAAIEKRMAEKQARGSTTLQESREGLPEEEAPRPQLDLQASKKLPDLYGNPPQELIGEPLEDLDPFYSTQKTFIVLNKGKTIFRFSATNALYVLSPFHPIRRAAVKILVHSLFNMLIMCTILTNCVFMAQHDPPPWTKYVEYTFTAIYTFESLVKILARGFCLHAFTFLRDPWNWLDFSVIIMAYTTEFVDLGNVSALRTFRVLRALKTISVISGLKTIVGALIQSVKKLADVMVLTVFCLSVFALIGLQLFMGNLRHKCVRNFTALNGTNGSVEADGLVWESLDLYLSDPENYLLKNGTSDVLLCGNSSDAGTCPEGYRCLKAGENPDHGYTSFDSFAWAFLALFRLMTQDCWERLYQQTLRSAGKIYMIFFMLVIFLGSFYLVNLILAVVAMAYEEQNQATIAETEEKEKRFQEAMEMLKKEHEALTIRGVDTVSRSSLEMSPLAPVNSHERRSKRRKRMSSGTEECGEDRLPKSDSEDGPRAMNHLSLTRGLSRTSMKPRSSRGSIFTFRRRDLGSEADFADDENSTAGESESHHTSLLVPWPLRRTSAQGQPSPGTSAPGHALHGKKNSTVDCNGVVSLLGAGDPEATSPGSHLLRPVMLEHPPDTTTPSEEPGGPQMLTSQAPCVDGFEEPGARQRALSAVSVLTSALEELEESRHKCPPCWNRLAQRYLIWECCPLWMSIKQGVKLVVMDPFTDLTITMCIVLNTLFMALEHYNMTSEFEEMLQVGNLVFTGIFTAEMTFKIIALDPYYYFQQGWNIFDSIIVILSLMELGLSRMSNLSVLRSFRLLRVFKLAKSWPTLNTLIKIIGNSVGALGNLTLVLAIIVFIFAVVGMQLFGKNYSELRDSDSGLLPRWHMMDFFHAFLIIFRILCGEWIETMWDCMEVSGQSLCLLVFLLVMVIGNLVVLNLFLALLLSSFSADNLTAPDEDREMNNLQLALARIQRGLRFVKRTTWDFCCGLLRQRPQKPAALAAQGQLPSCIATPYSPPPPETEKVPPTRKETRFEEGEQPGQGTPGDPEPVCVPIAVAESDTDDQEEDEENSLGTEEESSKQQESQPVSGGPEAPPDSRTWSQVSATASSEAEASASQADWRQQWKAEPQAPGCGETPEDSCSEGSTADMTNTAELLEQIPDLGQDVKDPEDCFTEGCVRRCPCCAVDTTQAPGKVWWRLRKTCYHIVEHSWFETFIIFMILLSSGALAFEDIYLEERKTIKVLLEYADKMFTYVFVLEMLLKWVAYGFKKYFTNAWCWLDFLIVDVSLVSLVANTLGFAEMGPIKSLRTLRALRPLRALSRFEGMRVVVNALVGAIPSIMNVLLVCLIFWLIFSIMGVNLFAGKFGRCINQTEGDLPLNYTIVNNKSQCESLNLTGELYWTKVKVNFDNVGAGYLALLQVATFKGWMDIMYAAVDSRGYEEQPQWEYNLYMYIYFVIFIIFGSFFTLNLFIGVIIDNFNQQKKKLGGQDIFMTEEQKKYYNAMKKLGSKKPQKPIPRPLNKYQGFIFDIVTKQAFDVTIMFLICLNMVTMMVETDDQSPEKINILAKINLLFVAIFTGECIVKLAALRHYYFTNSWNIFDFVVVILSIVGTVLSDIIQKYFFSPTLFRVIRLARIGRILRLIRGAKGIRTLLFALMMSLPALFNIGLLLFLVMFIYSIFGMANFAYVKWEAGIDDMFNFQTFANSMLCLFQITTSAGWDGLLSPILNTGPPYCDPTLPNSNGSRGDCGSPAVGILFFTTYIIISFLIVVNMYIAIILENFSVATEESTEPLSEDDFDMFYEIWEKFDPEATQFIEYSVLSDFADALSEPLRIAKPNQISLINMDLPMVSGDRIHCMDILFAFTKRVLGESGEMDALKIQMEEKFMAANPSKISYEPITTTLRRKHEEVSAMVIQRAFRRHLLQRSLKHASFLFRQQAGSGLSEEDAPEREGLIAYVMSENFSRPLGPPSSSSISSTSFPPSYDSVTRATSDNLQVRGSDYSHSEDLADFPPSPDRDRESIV

In the case of `CC[C@H](C)[C@H](NC(=O)[C@H](CCCCN)NC(=O)[C@H](CCCNC(=N)N)NC(=O)[C@@H]1CSSC[C@@H]2NC(=O)[C@H](C)NC(=O)[C@H](CCCNC(=N)N)NC(=O)[C@H](CCCCN)NC(=O)[C@H](CO)NC(=O)[C@H](CC(=O)O)NC(=O)[C@@H]3CSSC[C@H](NC(=O)[C@H](CCC(=O)O)NC(=O)[C@H](CC(C)C)NC(=O)CNC(=O)[C@H](CCC(=O)O)NC(=O)[C@H](CSSC[C@H](NC(=O)[C@@H](N)Cc4ccc(O)cc4)C(=O)N[C@@H](CCC(N)=O)C(=O)N[C@@H](CCCCN)C(=O)N[C@@H](Cc4c[nH]c5ccccc45)C(=O)N[C@@H](CCSC)C(=O)N[C@@H](Cc4c[nH]c5ccccc45)C(=O)N[C@@H]([C@@H](C)O)C(=O)N3)NC2=O)C(=O)N[C@@H](CCCCN)C(=O)N[C@@H](CC(C)C)C(=O)N[C@@H](Cc2c[nH]c3ccccc23)C(=O)N1)C(=O)N[C@@H](Cc1c[nH]c2ccccc12)C(N)=O` [compound 112], the IC50 (commonly the concentration needed to halve the response being measured) is 30 nM and 17 nM at hNav1.7 [1]; 6.9 µM at hNav1.5 [2]; > 5 µM at hNav1.4 [3]; 3.62 µM on hNav1.3; 2.8 nM and 0.67 nM and 1.3 nM and 0.5 nM and 1.41 nM and 2.15 nM and 1.82 nM and 2.12 nM at hNav1.7 [4]; 1130 nM and 824 nM and 1050 nM and 1350 nM and 2370 nM at hNav1.4 [5]. Also, the IC50 is 3.42 µM and 3.95 µM and 4.41 µM and 1.32 µM and 1.62 µM at hNav1.5 [6]; 0.23 nM against hNav1.7 [7] (WCPC, hNav1.7, partially inactivated, n=2). The “1.x/1.7, partially inactivated” value on hNav1.7 [7] (hNav1.7 vs hNav1.7, partially inactivated) was 1; in [8], 1213; in series [8] (mTTX-S (fresh DRG) vs hNav1.7, partially inactivated) it was 917. Also, the “% Peptide Remaining” value in series [9] and in series [10] was 100% in each case. Further, the fraction remaining (in general, what is left of the initial amount, in per cent) at 2 h in “in vitro [11]” was determined as 88%; in “in vitro [12]”, 95%. Moreover, the amount remaining at 4 h was determined as 82% in the series “in vitro [11]” and 93% in the series “in vitro [12]”. Further, the amount remaining at 6 h amounted to 85% in the series “in vitro [11]” and 92% in “in vitro [12]”. Moreover, the fraction remaining at 8 h in “in vitro [11]” was 85%; in “in vitro [12]”, 89%. Moreover, the share remaining at 24 h worked out at 77% in “in vitro [11]” and 70% in the series “in vitro [12]”.
